Here are results for one molecule from PMC8505397, “Development of peptides targeting receptor binding site of the envelope glycoprotein to contain the West Nile virus infection” (Scientific Reports, 2021).

The assay concerns the target T1, interaction between rDIII and ~ 15 kDa receptor of hBMECs (West Nile virus, UniProt P06935).
T1 construct: rDIII – recombinant domain III; made in house; host or cells: E. coli M15
T1 sequence (P06935 584-692 limits assumed): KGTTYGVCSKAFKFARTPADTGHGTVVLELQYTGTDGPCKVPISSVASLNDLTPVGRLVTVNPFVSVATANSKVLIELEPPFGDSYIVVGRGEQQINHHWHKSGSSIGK
The assay is described as follows: Blocking of interaction between rDIII and proteins of hBMECs by peptides (Western blot). It counts as binding, West Nile virus / human. Particulars: 2.5 µg (0.19 nM) rDIII pre-incubated with tenfold molar excess (1.9 nM) of peptide. How it is done: First, concentration-dependent ELISA and Western blot were performed to get the minimum concentration of rDIII required to show its interaction with hBMECs proteins. Details are presented in Supplementary Method S12 and Supplementary Method S13. Subsequently, the ability of 7-mer and 12-mer peptides to block the interaction between rDIII and proteins of hBMECs was tested. A tenfold molar excess of peptides was incubated with rDIII for 1 h at room temperature. Such pre-incubated rDIII was subsequently used in the assays. Details of both methods are described in Supplementary Method S12 and Supplementary Method S13. […]
Blocking of interaction between rDIII and proteins of hBMECs by peptides (Western blot).
Two hundred micrograms of proteins extracted from hBMECs were separated on 2-well PAGE […]
gel (12% polyacrylamide gel) and transferred on 0.45 μm nitrocellulose membrane (Amersham Protran; GE Healthcare) for 1 h at 30 V. Details of LDS-PAGE are described in Supplementary Methods S7. The membrane was cut horizontally to obtain proteins of molecular weight between ~10 kDa to ~25 kDa. Subsequently, this membrane was sliced vertically to obtain 0.3 cm strips, which were then used in Western blot (Supplementary Fig.
The NC strips with transblotted hBMECs proteins were first incubated with rDIII at various concentrations to find out the minimal concentration of rDIII required to detect the interaction with hBMECs proteins. Non-specific binding sites were blocked with 1% BSA in 0.05% TBST (pH 7.2) for 1 h at room temperature and constant shaking followed by a washing step for 5 min with 0.05% TBST. The NC strips were incubated with rDIII at different concentrations (5 µg, 2.5 µg, 2 µg, 1 µg, 500 ng) diluted in 1 mL of 0.05% TBST for 3 h at room temperature and constant shaking. After 3 washings with 0.05% TBST, strips were incubated with HisProbe-HRP conjugate (1:5,000 dilution in 0.1% BSA in 0.05% TBST; Thermo Fisher Scientific) for 30 min at room temperature. Six washings, each of 5 min were performed before incubating the strips in SuperSignal chemiluminescence substrate (Thermo Fisher Scientific). The signal was captured on the C-DiGit Blot Scanner (Odyssey CLx, LI-COR Biosciences). For negative control, rDIII was excluded from the above-mentioned protocol.
To block the interaction, the NC strips were blocked as described above.
Simultaneously, 2.5 µg (0.19 nM) of rDIII were pre-incubated with 2.75 µg of each peptide (10-fold molar excess; 1.9 nM) in TBS for 1 h at room temperature. Further on, strips were incubated with pre-incubated rDIII for 3 h at room temperature with constant shaking. After 3 washings with 0.05% TBST, strips were incubated with HisProbe-HRP conjugate as described above. […]
On the technique in general: A western blot detects proteins with antibodies after separation by electrophoresis.

Take `CC[C@H](C)[C@@H]1NC(=O)[C@@H](NC(=O)[C@H](C)N)CSSC[C@@H](C(=O)NCC(=O)NCC(=O)NCC(=O)N[C@@H](CO)C(=O)O)NC(=O)[C@H](C)NC(=O)[C@H](CCCNC(=N)N)NC(=O)[C@H]([C@@H](C)O)NC(=O)[C@H](CO)NC(=O)[C@H](CO)NC(=O)[C@H](Cc2c[nH]cn2)NC1=O` [CP4, CIHSSTRAC]: the “inhibition of the interaction between rDIII and ~ 15 kDa hBMECs receptor (Western blot)” value is reported as “inhibition of the interaction was confirmed”.
